Data from US10551384B2, “MTOR kinase mutations and methods of use thereof” (RUTGERS, THE STATE UNIVERSITY OF NEW JERSEY, priority 2016, dated 2020).

Test system: xenograft tumors derived from SW480 cells carrying homozygous mTOR(L2185A) alleles
Test: SW480 xenograft tumor model, mTOR(L2185A)
Type: in vivo, mice
Method: FIGS. 6A-E. L2185A mutation renders resistance of xenograft tumors to mTOR kinase inhibitors. (FIG. 6A) Mice bearing xenograft tumors derived from SW480 cells expressing WT mTOR were administered with INK128 at 1 mg/kg or 0.3 mg/kg, once daily via intraperitoneal injection. Shown are representative animals and excised tumors after drug treatment. (FIG. 6B) Same as FIG. 6A except xenograft tumors were derived from SW480 carrying homozygous mTOR(L2185A) alleles. (FIG. 6C) Tumor volume measurement for SW480 xenograft tumors expressing mTOR (WT) (expressed as means±SD; n=8, *P<0.01, vs. vehicle control). (FIG. 6D) Tumor volume measurement for SW480 xenograft tumors expressing mTOR(L2185A) mutant (expressed as means±SD; n=8). (FIG. 6E) Tissue extracts from xenograft tumors at the end of treatment with or without 1 mg/kg INK128 were analyzed for the level of P-S6K, S6K, P-S6, S6, P-4E-BP1, 4E-BP1, P-AKT and AKT was analyzed by immunoblot. Six tumor samples from each animal group were shown with each lane representing an individual tumor sample.
Female athymic NCr-nu/nu mice (4-6 weeks old) were obtained from Taconic Farms. […] Tumor volume was calculated by the following formula: tumor volume (mm^3)=(shorter diameter^2× longer diameter)/2 and are presented as means±SD (n=8) (Zhang, Y., and Zheng, X. (2012). Cell Cycle 11, 594-603). […]

Compound: CC(C)n1nc(-c2ccc3oc(N)nc3c2)c2c(N)ncnc21 [INK128]
- growth of mTOR(L2185A) xenograft tumors (1 mg/kg or 0.3 mg/kg once daily, intraperitoneal injection): little or no effect
- mTORC1 and mTORC2 signaling in mTOR(L2185A) xenograft tumors (1 mg/kg, tumor extracts at end of treatment, immunoblot): drug-resistance in mTORC1 and mTORC2 signaling
